System: MV-4-11 cells
Assay: Gene expression microarray analysis (Affymetrix PrimeView) and GSEA
Assay type: cell-based, human
Parameters: RFU PODN (11730768_x_at) / Fold change /veh PODN (11730768_x_at) / RFU LINC00158 (11744669_a_at) / Fold change /veh LINC00158 (11744669_a_at) / RFU DUSP10 (11751237_a_at) / Fold change /veh DUSP10 (11751237_a_at) / RFU ID3 (11757404_x_at) / Fold change /veh ID3 (11757404_x_at) / RFU PLEKHG5 (11737974_s_at) / Fold change /veh PLEKHG5 (11737974_s_at) / RFU LRRC4B (11730491_at) / Fold change /veh LRRC4B (11730491_at) / RFU GIMAP4 (11747438_a_at) / Fold change /veh GIMAP4 (11747438_a_at) / RFU KRT8 (11758183_x_at) / Fold change /veh KRT8 (11758183_x_at) / RFU CNN1 (11734310_a_at) / Fold change /veh CNN1 (11734310_a_at) / RFU VPS37D (11726825_at) / Fold change /veh VPS37D (11726825_at) / RFU C10orf10 (11716522_x_at) / Fold change /veh C10orf10 (11716522_x_at) / RFU KIR2DL2 /// KIR2DL4 /// KIR2DL5A /// KIR2DL5B /// KIR2DS1 /// KIR2DS2 /// KIR2DS3 /// KIR2DS4 /// KIR3DL3 /// KIR3DL3 /// KIR3DS1 (11738374_at) / Fold change /veh KIR2DL2 /// KIR2DL4 /// KIR2DL5A /// KIR2DL5B /// KIR2DS1 /// KIR2DS2 /// KIR2DS3 /// KIR2DS4 /// KIR3DL3 /// KIR3DL3 /// KIR3DS1 (11738374_at) / RFU C1QL1 (11718748_at) / Fold change /veh C1QL1 (11718748_at) / RFU TMPRSS4 (11747572_a_at) / Fold change /veh TMPRSS4 (11747572_a_at) / RFU HAMP (11756126_x_at) / Fold change /veh HAMP (11756126_x_at) / RFU RNFT2 (11725882_a_at) / Fold change /veh RNFT2 (11725882_a_at) / RFU NR4A2 (11747474_a_at) / Fold change /veh NR4A2 (11747474_a_at) / RFU ABCC12 (11746883_a_at) / Fold change /veh ABCC12 (11746883_a_at) / RFU TMEM136 (11760407_x_at) / Fold change /veh TMEM136 (11760407_x_at) / RFU CLDN22 /// WWC2 (11732394_at) / Fold change /veh CLDN22 /// WWC2 (11732394_at) / RFU HLA-DPB1 (11760878_x_at) / Fold change /veh HLA-DPB1 (11760878_x_at) / RFU SPINT1 (11716480_a_at) / Fold change /veh SPINT1 (11716480_a_at) / RFU GAP43 (11754022_s_at) / Fold change /veh GAP43 (11754022_s_at) / RFU A4GNT (11735810_at) / Fold change /veh A4GNT (11735810_at) / RFU PRB3 (11715151_x_at) / Fold change /veh PRB3 (11715151_x_at) / RFU TUBB4B (11761932_at) / Fold change /veh TUBB4B (11761932_at) / RFU CAPN14 (11732068_a_at) / Fold change /veh CAPN14 (11732068_a_at) / RFU TMCC2 (11721928_a_at) / Fold change /veh TMCC2 (11721928_a_at) / RFU IRGQ (11745062_a_at) / Fold change /veh IRGQ (11745062_a_at) / RFU FAM174B (11720279_a_at) / Fold change /veh FAM174B (11720279_a_at) / RFU TMPRSS4 (11748680_a_at) / Fold change /veh TMPRSS4 (11748680_a_at) / RFU FAM212B (11763350_a_at) / Fold change /veh FAM212B (11763350_a_at) / RFU PLEKHG5 (11743358_a_at) / Fold change /veh PLEKHG5 (11743358_a_at) / RFU ZSCAN30 (11745921_a_at) / Fold change /veh ZSCAN30 (11745921_a_at) / RFU CMKLR1 (11741424_a_at) / Fold change /veh CMKLR1 (11741424_a_at) / RFU LOC101060620 /// MAPK8IP1 (11723275_at) / Fold change /veh LOC101060620 /// MAPK8IP1 (11723275_at) / RFU SPTSSB (11747773_x_at) / Fold change /veh SPTSSB (11747773_x_at) / RFU PRSS12 (11739890_at) / Fold change /veh PRSS12 (11739890_at) / RFU BIN1 (11741810_x_at) / Fold change /veh BIN1 (11741810_x_at) / RFU WNT11 (11732464_a_at) / Fold change /veh WNT11 (11732464_a_at) / RFU C10orf10 (11716521_a_at) / Fold change /veh C10orf10 (11716521_a_at) / RFU C5orf56 (11738089_at) / Fold change /veh C5orf56 (11738089_at) / RFU CYB561 (11721691_x_at) / Fold change /veh CYB561 (11721691_x_at) / RFU ANKRD19P (11752326_a_at) / Fold change /veh ANKRD19P (11752326_a_at) / RFU OR2T12 /// OR2T33 /// OR2T8 (11738714_s_at) / Fold change /veh OR2T12 /// OR2T33 /// OR2T8 (11738714_s_at) / RFU VCAN (11748164_a_at) / Fold change /veh VCAN (11748164_a_at) / RFU JSRP1 (11732532_at) / Fold change /veh JSRP1 (11732532_at) / RFU KRTAP10-11 (11738290_x_at) / Fold change /veh KRTAP10-11 (11738290_x_at) / RFU MYO3A (11730013_a_at) / Fold change /veh MYO3A (11730013_a_at) / RFU EBF3 (11725865_a_at) / Fold change /veh EBF3 (11725865_a_at) / RFU CAMK2N1 (11719241_x_at) / Fold change /veh CAMK2N1 (11719241_x_at) / RFU C5orf56 (11738088_a_at) / Fold change /veh C5orf56 (11738088_a_at) / RFU OLFML3 (11715873_a_at) / Fold change /veh OLFML3 (11715873_a_at) / RFU LOC100653217 /// NTM (11731650_a_at) / Fold change /veh LOC100653217 /// NTM (11731650_a_at) / RFU MAPK11 (11762145_a_at) / Fold change /veh MAPK11 (11762145_a_at) / RFU FIZ1 (11724087_x_at) / Fold change /veh FIZ1 (11724087_x_at) / RFU OASL (11726364_x_at) / Fold change /veh OASL (11726364_x_at) / RFU SOX15 (11748057_x_at) / Fold change /veh SOX15 (11748057_x_at) / RFU CD79A (11719716_a_at) / Fold change /veh CD79A (11719716_a_at) / RFU HIST1H1D (11736915_at) / Fold change /veh HIST1H1D (11736915_at) / RFU CASKIN2 (11723855_a_at) / Fold change /veh CASKIN2 (11723855_a_at) / RFU LOC730098 (11760151_x_at) / Fold change /veh LOC730098 (11760151_x_at) / RFU OR4N2 (11742367_at) / Fold change /veh OR4N2 (11742367_at) / RFU PRRT2 (11749266_a_at) / Fold change /veh PRRT2 (11749266_a_at) / RFU SNX32 (11753110_a_at) / Fold change /veh SNX32 (11753110_a_at) / RFU CDHR5 (11726645_a_at) / Fold change /veh CDHR5 (11726645_a_at) / RFU RCAN1 (11760418_a_at) / Fold change /veh RCAN1 (11760418_a_at) / RFU FAM167A (11723789_a_at) / Fold change /veh FAM167A (11723789_a_at) / RFU FAM26E (11764081_at) / Fold change /veh FAM26E (11764081_at) / RFU ISYNA1 (11749810_s_at) / Fold change /veh ISYNA1 (11749810_s_at) / RFU ACY1 (11761880_at) / Fold change /veh ACY1 (11761880_at) / RFU 11764098_at / Fold change /veh 11764098_at / RFU SAMD14 (11745864_x_at) / Fold change /veh SAMD14 (11745864_x_at) / RFU NPB (11741838_a_at) / Fold change /veh NPB (11741838_a_at) / RFU TMPRSS6 (11731388_a_at) / Fold change /veh TMPRSS6 (11731388_a_at) / RFU KRTAP10-2 (11738614_at) / Fold change /veh KRTAP10-2 (11738614_at) / RFU ARHGAP8 /// PRR5-ARHGAP8 (11727945_x_at) / Fold change /veh ARHGAP8 /// PRR5-ARHGAP8 (11727945_x_at) / RFU KRTAP5-7 /// NADSYN1 (11734609_at) / Fold change /veh KRTAP5-7 /// NADSYN1 (11734609_at) / RFU RASL12 (11751679_a_at) / Fold change /veh RASL12 (11751679_a_at) / RFU CDKN2B (11736163_a_at) / Fold change /veh CDKN2B (11736163_a_at) / RFU PRF1 (11729649_at) / Fold change /veh PRF1 (11729649_at) / RFU, ZNF638 /// ZNF638-IT1 / Fold change vs veh, ZNF638 /// ZNF638-IT1 / RFU, PANK3 / Fold change vs veh, PANK3 / RFU, SH3YL1 / Fold change vs veh, SH3YL1 / RFU, ZEB2 / Fold change vs veh, ZEB2 / RFU, NRIP1 / Fold change vs veh, NRIP1 / RFU, PTTG1IP / Fold change vs veh, PTTG1IP / RFU, CAPN2 / Fold change vs veh, CAPN2 / RFU, MED14 / Fold change vs veh, MED14 / RFU, SNORA58 / Fold change vs veh, SNORA58 / RFU, C1orf63 / Fold change vs veh, C1orf63 / RFU, LRRFIP1 / Fold change vs veh, LRRFIP1 / RFU, NDUFAF7 / Fold change vs veh, NDUFAF7 / RFU, SLC12A2 / Fold change vs veh, SLC12A2 / RFU, IBTK / Fold change vs veh, IBTK / RFU, ESF1 / Fold change vs veh, ESF1 / Fold change vs veh, TMEM50B / RFU, TAOK1 / Fold change vs veh, TAOK1 / RFU, ACBD3 / Fold change vs veh, ACBD3 / RFU, TMA16 / Fold change vs veh, TMA16 / RFU, RWDD3 / Fold change vs veh, RWDD3 / RFU, BCAT1 / Fold change vs veh, BCAT1 / RFU, EDEM3 / Fold change vs veh, EDEM3 / RFU, TMEM33 / Fold change vs veh, TMEM33 / RFU, WDR75 / Fold change vs veh, WDR75 / RFU, AHCTF1 / Fold change vs veh, AHCTF1 / RFU, TFRC / Fold change vs veh, TFRC / RFU, ZDHHC17 / Fold change vs veh, ZDHHC17 / RFU, NOM1 / Fold change vs veh, NOM1 / RFU, ARL8B / Fold change vs veh, ARL8B / RFU, ZBTB11 / Fold change vs veh, ZBTB11 / RFU, TAMM41 / Fold change vs veh, TAMM41 / RFU, KIAA1704 /// LOC100996395 / Fold change vs veh, KIAA1704 /// LOC100996395 / RFU, ING1 / Fold change vs veh, ING1 / RFU, TRMT61B / Fold change vs veh, TRMT61B / RFU, FUBP3 / Fold change vs veh, FUBP3 / RFU, TP53 / Fold change vs veh, TP53 / RFU, TNKS2 / Fold change vs veh, TNKS2 / RFU, ZFP14 / Fold change vs veh, ZFP14 / RFU, ACTR2 / Fold change vs veh, ACTR2 / RFU, PPP3R1 / Fold change vs veh, PPP3R1 / RFU, PIK3R1 / Fold change vs veh, PIK3R1 / RFU, HNRNPA1 / Fold change vs veh, HNRNPA1 / RFU, RNF170 / Fold change vs veh, RNF170 / RFU, ZNF28 / Fold change vs veh, ZNF28 / RFU, RNGTT / Fold change vs veh, RNGTT / RFU, OGT / Fold change vs veh, OGT / RFU, BRD1 / Fold change vs veh, BRD1 / RFU, MARS / Fold change vs veh, MARS / RFU, ZNF655 / Fold change vs veh, ZNF655 / RFU, FAHD1 / Fold change vs veh, FAHD1 / RFU, BDP1 / Fold change vs veh, BDP1 / RFU, LRRCC1 / Fold change vs veh, LRRCC1 / RFU, ARID1A / Fold change vs veh, ARID1A / RFU, ZNF146 / Fold change vs veh, ZNF146 / RFU, ZNF330 / Fold change vs veh, ZNF330 / RFU, GPN3 / Fold change vs veh, GPN3 / RFU, C9orf123 / Fold change vs veh, C9orf123 / RFU, N4BP2L2 / Fold change vs veh, N4BP2L2 / RFU, ARFIP1 / Fold change vs veh, ARFIP1 / RFU, FAM179B / Fold change vs veh, FAM179B / RFU, BCL10 / Fold change vs veh, BCL10 / RFU, UHRF1BP1L / Fold change vs veh, UHRF1BP1L / RFU, BET1 / Fold change vs veh, BET1 / RFU, CNOT2 / Fold change vs veh, CNOT2 / RFU, ZNF268 / Fold change vs veh, ZNF268 / Fold change vs veh, ZNF507 / RFU, DGCR2 / Fold change vs veh, DGCR2 / RFU, WDSUB1 / Fold change vs veh, WDSUB1 / Fold change vs veh, HSP90B1 /// MIR3652 / RFU, ADSS / Fold change vs veh, ADSS / RFU, GK / Fold change vs veh, GK / RFU, ZNF148 / Fold change vs veh, ZNF148 / RFU, TAF9 / Fold change vs veh, TAF9 / RFU, SLC1A5 / Fold change vs veh, SLC1A5 / RFU, SLMO2 / Fold change vs veh, SLMO2 / RFU, ABCC4 / Fold change vs veh, ABCC4 / RFU, LOC101060439 /// RAP1B / Fold change vs veh, LOC101060439 /// RAP1B / RFU, RFX7 / Fold change vs veh, RFX7 / RFU, GTPBP10 / Fold change vs veh, GTPBP10 / RFU, CNEP1R1 / Fold change vs veh, CNEP1R1 / RFU, BIVM-ERCC5 /// ERCC5 / Fold change vs veh, BIVM-ERCC5 /// ERCC5 / RFU, ILF3 / Fold change vs veh, ILF3 / RFU 11762660_at / Fold change /veh 11762660_at / RFU VCAN (11757783_s_at) / Fold change /veh VCAN (11757783_s_at) / RFU DDX43 (11728927_at) / Fold change /veh DDX43 (11728927_at) / RFU KRT8 (11758188_x_at) / Fold change /veh KRT8 (11758188_x_at) / RFU NKD1 (11759106_at) / Fold change /veh NKD1 (11759106_at) / RFU SRD5A1 (11742802_a_at) / Fold change /veh SRD5A1 (11742802_a_at) / RFU TPSAB1 /// TPSB2 (11721975_s_at) / Fold change /veh TPSAB1 /// TPSB2 (11721975_s_at) / RFU GSTM3 (11746129_a_at) / Fold change /veh GSTM3 (11746129_a_at) / RFU IL23R (11737362_x_at) / Fold change /veh IL23R (11737362_x_at) / RFU TMEM51 (11727254_a_at) / Fold change /veh TMEM51 (11727254_a_at) / RFU PIWIL2 (11732686_x_at) / Fold change /veh PIWIL2 (11732686_x_at) / RFU ORM1 (11744905_x_at) / Fold change /veh ORM1 (11744905_x_at) / RFU CCDC152 (11743942_at) / Fold change /veh CCDC152 (11743942_at) / RFU ECM1 (11717891_a_at) / Fold change /veh ECM1 (11717891_a_at) / RFU IL23R (11748794_a_at) / Fold change /veh IL23R (11748794_a_at) / RFU TNFAIP8L3 (11732012_x_at) / Fold change /veh TNFAIP8L3 (11732012_x_at) / RFU MBOAT4 (11741988_at) / Fold change /veh MBOAT4 (11741988_at) / RFU 11764193_at / Fold change /veh 11764193_at / RFU TMEM53 (11763286_at) / Fold change /veh TMEM53 (11763286_at) / RFU MAGEB2 (11727129_at) / Fold change /veh MAGEB2 (11727129_at) / RFU TMEM200A (11744735_a_at) / Fold change /veh TMEM200A (11744735_a_at) / RFU CCDC152 (11751479_a_at) / Fold change /veh CCDC152 (11751479_a_at) / RFU FAM211A (11726209_a_at) / Fold change /veh FAM211A (11726209_a_at) / RFU RGS16 (11746705_a_at) / Fold change /veh RGS16 (11746705_a_at) / RFU VCAN (11755009_s_at) / Fold change /veh VCAN (11755009_s_at) / RFU RHOB (11743442_s_at) / Fold change /veh RHOB (11743442_s_at) / RFU RGS16 (11720943_a_at) / Fold change /veh RGS16 (11720943_a_at) / RFU RGS16 (11720944_at) / Fold change /veh RGS16 (11720944_at) / RFU, VPS4B / Fold change vs veh, VPS4B / RFU, CREB1 / Fold change vs veh, CREB1 / RFU, DNAJC13 / Fold change vs veh, DNAJC13 / RFU, GNAQ / Fold change vs veh, GNAQ / RFU, CDK5R1 / Fold change vs veh, CDK5R1 / RFU, ZRANB3 / Fold change vs veh, ZRANB3 / RFU, CUL4A / Fold change vs veh, CUL4A / RFU, CCNY / Fold change vs veh, CCNY / RFU, UFL1 / Fold change vs veh, UFL1 / RFU, COG3 / Fold change vs veh, COG3 / RFU, DIAPH2 / Fold change vs veh, DIAPH2 / RFU, SKA2 / Fold change vs veh, SKA2 / RFU, AFF3 / Fold change vs veh, AFF3 / RFU, LMF1 / Fold change vs veh, LMF1 / RFU, IPO11 / Fold change vs veh, IPO11 / RFU, DFFB / Fold change vs veh, DFFB / RFU, FOXP1 / Fold change vs veh, FOXP1 / RFU, CARD8 / Fold change vs veh, CARD8 / RFU, STRN3 / Fold change vs veh, STRN3 / RFU, ADK / Fold change vs veh, ADK / RFU, RASSF2 / Fold change vs veh, RASSF2 / RFU, WIPF1 / Fold change vs veh, WIPF1 / RFU, LARP1B / Fold change vs veh, LARP1B / RFU, RASA1 / Fold change vs veh, RASA1 / RFU, RB1 / Fold change vs veh, RB1 / RFU, PPFIA1 / Fold change vs veh, PPFIA1 / RFU, MAT2A / Fold change vs veh, MAT2A / RFU, CCT5 / Fold change vs veh, CCT5 / RFU, WDR92 / Fold change vs veh, WDR92 / RFU, CUX1 / Fold change vs veh, CUX1 / RFU, TTC7A / Fold change vs veh, TTC7A / RFU, TMEM135 / Fold change vs veh, TMEM135 / RFU, DEPTOR / Fold change vs veh, DEPTOR / RFU, CPM / Fold change vs veh, CPM / RFU, DNAJB6 / Fold change vs veh, DNAJB6 / RFU, CACNA2D3 / Fold change vs veh, CACNA2D3 / RFU, DTX4 / Fold change vs veh, DTX4 / RFU, TFCP2 / Fold change vs veh, TFCP2 / RFU, GMCL1 /// GMCL1P1 / Fold change vs veh, GMCL1 /// GMCL1P1 / RFU, AEBP2 / Fold change vs veh, AEBP2 / RFU, SNHG1 /// SNORD22 /// SNORD25 /// SNORD26 /// SNORD27 /// SNORD28 /// SNORD29 /// SNORD31 / Fold change vs veh, SNHG1 /// SNORD22 /// SNORD25 /// SNORD26 /// SNORD27 /// SNORD28 /// SNORD29 /// SNORD31 / Fold change (Aza/veh), C12orf56 (ProbeSet 11735607_a_at) / Fold change (ACY-1035/veh), C12orf56 (ProbeSet 11735607_a_at) / Fold change (Aza/veh), FGFR1OP (ProbeSet 11751329_s_at) / Fold change (ACY-1035/veh), FGFR1OP (ProbeSet 11751329_s_at) / Fold change (Aza/veh), VPS36 (ProbeSet 11739960_a_at) / Fold change (ACY-1035/veh), VPS36 (ProbeSet 11739960_a_at) / RFU SYPL1 (11715823_x_at) / Fold change /veh SYPL1 (11715823_x_at) / RFU IGFBP7 (11715501_s_at) / Fold change /veh IGFBP7 (11715501_s_at) / RFU REEP3 (11722064_at) / Fold change /veh REEP3 (11722064_at) / RFU IGLL1 (11728026_x_at) / Fold change /veh IGLL1 (11728026_x_at): dose or concentration left out as unconfirmed
Details: ProbeSet 11726703_a_at; LIST B

For `Nc1ncn([C@@H]2O[C@H](CO)[C@@H](O)[C@H]2O)c(=O)n1` [azacitidine], the “RFU, BCL10” value was 71.45 RFU.

— PMC5218480 (PLoS ONE, 2017)
